Experimental data as given in US11142526B2, “Spirocycle compounds and methods of making and using same” (H. Lundbeck A/S, priority 2017, dated 2021).
Read-outs that look alike come from different tables or passages of the source.

Experiments:
MAGL [1] = molecular target: MAGL (Homo sapiens (Human), UniProt Q99685); test: In vitro competitive activity-based protein profiling (gel-based, FP-Rh or HT-01 probe); type: biochemical
Experimental: In Vitro Competitive Activity-Based Protein Profiling.
Proteomes (human prefrontal cortex or cell membrane fractions) (50 μL, 1.0 mg/mL total protein concentration) were preincubated with varying concentrations of inhibitors at 37° C. After 30 min, FP-Rh or HT-01 (1.0 μL, 50 μM in DMSO) was added and the mixture was incubated for another 30 min at room temperature. Reactions were quenched with SDS loading buffer (15 μL—4×) and run on SDS-PAGE.

MAGL [2] = molecular target: MAGL (Mus musculus (Mouse), UniProt O35678); test: In vitro competitive activity-based protein profiling, mouse brain proteome; type: biochemical; details: for inhibition at 1 µM: mouse; for IC50: mouse brain
Sequence of MAGL (Mus musculus (Mouse), UniProt O35678) (O35678 whole entry): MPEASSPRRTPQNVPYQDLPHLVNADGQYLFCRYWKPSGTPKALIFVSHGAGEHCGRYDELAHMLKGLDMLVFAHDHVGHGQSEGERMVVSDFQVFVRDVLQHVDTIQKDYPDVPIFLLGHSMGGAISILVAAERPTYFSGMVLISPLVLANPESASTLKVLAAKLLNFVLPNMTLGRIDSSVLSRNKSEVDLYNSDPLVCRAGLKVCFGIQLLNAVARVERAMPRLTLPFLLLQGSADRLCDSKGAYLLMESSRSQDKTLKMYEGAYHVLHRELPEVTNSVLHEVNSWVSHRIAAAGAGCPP

[3] = human PC3, read-out: MAGL Human PC3 (IC50)
[4] = human PC3, read-out: MAGL % Inhibition at 1 μM (human PC3)
[5] = human PFC (prefrontal cortex), read-out: MAGL % Inhibition at 1 μM (human PFC)
[6] = human PFC (prefrontal cortex), read-out: MAGL Human PFC (IC50)

Sequence of MAGL (Homo sapiens (Human), UniProt Q99685) (Q99685 whole entry): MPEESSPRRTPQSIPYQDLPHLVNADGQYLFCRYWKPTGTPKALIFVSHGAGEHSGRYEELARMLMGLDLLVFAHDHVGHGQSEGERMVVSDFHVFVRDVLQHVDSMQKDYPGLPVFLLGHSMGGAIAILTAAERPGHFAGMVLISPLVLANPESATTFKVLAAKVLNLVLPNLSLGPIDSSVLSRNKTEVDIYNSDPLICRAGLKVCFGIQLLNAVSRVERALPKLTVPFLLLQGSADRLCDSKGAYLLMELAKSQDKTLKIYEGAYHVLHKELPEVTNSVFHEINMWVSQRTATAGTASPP

O=C(OC(C(F)(F)F)C(F)(F)F)N1CCC2(CCCN2Cc2ccc3cccc(Cl)c3n2)CC1 [Example 57, 1,1,1,3,3,3-Hexafluoropropan-2-yl 1-((8-chloroquinolin-2-yl)methyl)-1,8-diazaspiro[4.5] decane-8-carboxylate]
IC50 (MAGL [1]; [3]): < 100 nM | inhibition at 1 µM (MAGL [2]): > 75% | IC50 (MAGL [2]): < 100 nM

CC1(NC(=O)c2cn3c(n2)CN(c2ncco2)CC3)CCN(C(=O)OC(C(F)(F)F)C(F)(F)F)CC1 [Example 28, 1,1,1,3,3,3-Hexafluoropropan-2-yl 4-methyl-4-(7-(oxazol-2-yl)-5,6,7,8-tetrahydroimidazo[1,2-a]pyrazine-2-carboxamido)piperidine-1-carboxylate]
inhibition at 1 µM (MAGL [1]; [4]): > 75% | inhibition at 1 µM (MAGL [2]): > 75%

O=C(O)C1CCN(c2ncccc2CN2CCCC23CCN(C(=O)OC(C(F)(F)F)C(F)(F)F)CC3)CC1 [Example 124, 1-(3-((8-(((1,1,1,3,3,3-HexafIuoropropan-2-yl)oxy)carbonyl)-1,8-diazaspiro[4.5]decan-1-yl)methyl)pyridin-2-yl)piperidine-4-carboxylic acid]
inhibition at 1 µM (MAGL [1]; [5]): 25 to 75% | inhibition at 1 µM (MAGL [2]): > 75%

Cc1nn2cccnc2c1C(=O)N1CCCC12CCN(C(=O)OC(C(F)(F)F)C(F)(F)F)CC2 [Example 171, 1,1,1,3,3,3-Hexafluoropropan-2-yl 1-(2-methylpyrazolo[1,5-a]pyrimidine-3-carbonyl)-1,8-diazaspiro[4.5] decane-8-carboxylate]
inhibition at 1 µM (MAGL [1]; [4]): > 75% | inhibition at 1 µM (MAGL [1]; [5]): > 75% | IC50 (MAGL [1]; [3]): < 100 nM | inhibition at 1 µM (MAGL [2]): > 75%

O=C(OC(C(F)(F)F)C(F)(F)F)N1CCC2(CCCN2C(=O)c2cnn3c2OCCC3)CC1 [Example 149, 1,1,1,3,3,3-Hexafluoropropan-2-yl 1-(6,7-dihydro-5H-pyrazolo[5,1-b] [1,3]oxazine-3-carbonyl)-1.8-diazaspiro[4.5] decane-8-carboxylate]
inhibition at 1 µM (MAGL [1]; [4]): > 75% | inhibition at 1 µM (MAGL [1]; [5]): > 75% | IC50 (MAGL [1]; [3]): < 100 nM | inhibition at 1 µM (MAGL [2]): > 75%

O=C(OC(C(F)(F)F)C(F)(F)F)N1CCC2(CCCN2C(=O)c2nc3ccccc3s2)CC1 [Example 75, 1,1,1,3,3,3-Hexafluoropropan-2-yl 1-(benzo[d]thiazole-2-carbonyl)-1,8-diazaspiro[4.5] decane-8-carboxylate]
IC50 (MAGL [1]; [3]): < 100 nM | inhibition at 1 µM (MAGL [2]): > 75% | IC50 (MAGL [2]): < 100 nM

O=C(OC(C(F)(F)F)C(F)(F)F)N1CCC2(CCCN2C(=O)c2nn3cccnc3c2Cl)CC1 [Example 157, 1,1,1,3,3,3-Hexafluoropropan-2-yl 1-(3-chloropyrazolo[1,5-a]pyrimidine-2-carbonyl)-1,8-diazaspiro[4.5] decane-8-carboxylate]
inhibition at 1 µM (MAGL [1]; [4]): > 75% | inhibition at 1 µM (MAGL [1]; [5]): > 75% | inhibition at 1 µM (MAGL [2]): > 75%

O=C(OC(C(F)(F)F)C(F)(F)F)N1CCC2(CCCN2C(=O)c2cc(N3CCCC3)nc(Cl)n2)CC1 [Example 119, 1,1,1,3,3,3-Hexafluoropropan-2-yl 1-(2-chloro-6-(pyrrolidin-1-yl)pyrimidine-4-carbonyl)-1,8-diazaspiro [4.5]decane-8-carboxylate]
inhibition at 1 µM (MAGL [1]; [5]): > 75% | IC50 (MAGL [1]; [3]): < 100 nM | IC50 (MAGL [1]; [6]): < 100 nM | inhibition at 1 µM (MAGL [2]): > 75%

O=C(O)Cn1cc(Cl)c(C(=O)N2CCCC23CCN(C(=O)OC(C(F)(F)F)C(F)(F)F)CC3)n1 [Example 173, 2-(4-Chloro-3-(8-(((1,1,1,3,3,3-hexafluoropropan-2-yl)oxy)carbonyl)-1,8-diazaspiro[4.5]decane-1-carbonyl)-1H-pyrazol-1-yl)acetic acid]
inhibition at 1 µM (MAGL [1]; [5]): > 75% | inhibition at 1 µM (MAGL [2]): < 25%

Cn1cc(CN2CCCC23CCN(C(=O)OC(C(F)(F)F)C(F)(F)F)CC3)cn1 [Example 175, 1,1,1,3,3,3-Hexafluoropropan-2-yl 1-((1-methyl-1H-pyrazol-4-yl)methyl)-1,8-diazaspiro[4.5] decane-8-carboxylate]
inhibition at 1 µM (MAGL [1]; [4]): > 75% | inhibition at 1 µM (MAGL [1]; [5]): > 75% | inhibition at 1 µM (MAGL [2]): 25 to 75%

CN(C(=O)c1cn2c(n1)CN(C1CCC1)CC2)C1(C)CCN(C(=O)OC(C(F)(F)F)C(F)(F)F)CC1 [Example 23, 1,1,1,3,3,3-Hexafluoropropan-2-yl 4-(7-cyclobutyl-N-methyl-5,6,7,8-tetrahydroimidazo[1,2-a]pyrazine-2-carboxamido)-4-methylpiperidine-1-carboxylate]
inhibition at 1 µM (MAGL [1]; [4]): > 75% | inhibition at 1 µM (MAGL [1]; [5]): > 75% | IC50 (MAGL [1]; [3]): < 100 nM | inhibition at 1 µM (MAGL [2]): > 75%

CC(C)n1cc(CN2CCC3(CCN(C(=O)OC(C(F)(F)F)C(F)(F)F)CC3)C2)c(-c2cccc(C(=O)O)c2)n1 [Example 113, 3-(4-((8-(((1,1,1,3,3,3-Hexafluoropropan-2-yl)oxy)carbonyl)-2,8-diazaspiro[4.5]decan-2-yl)methyl)-1-isopropyl-1H-pyrazol-3-yl) benzoic acid]
inhibition at 1 µM (MAGL [1]; [5]): 25 to 75% | inhibition at 1 µM (MAGL [2]): 25 to 75%

O=C(OC(C(F)(F)F)C(F)(F)F)N1CCC2(CCCN2C(=O)c2ccn(-c3ccc(Cl)cc3)n2)CC1 [Example 92, 1,1,1,3,3,3-Hexafluoropropan-2-yl 1-(1-(4-chlorophenyl)-1H-pyrazole-3-carbonyl)-1,8-diazaspiro[4.5] decane-8-carboxylate]
IC50 (MAGL [1]; [3]): < 100 nM | inhibition at 1 µM (MAGL [2]): > 75% | IC50 (MAGL [2]): < 100 nM

O=C(OC(C(F)(F)F)C(F)(F)F)N1CCC2(CCCN2C(=O)c2cc3nc(C(F)F)cc(C(F)F)n3n2)CC1 [Example 166, 1,1,1,3,3,3-Hexafluoropropan-2-yl 1-(5,7-bis(difluoromethyl)pyrazolo [1,5-a]pyrimidine-2-carbonyl)-1,8-diazaspiro [4.5]decane-8-carboxylate]
inhibition at 1 µM (MAGL [1]; [4]): > 75% | inhibition at 1 µM (MAGL [1]; [5]): > 75% | inhibition at 1 µM (MAGL [2]): > 75%

O=C(OC(C(F)(F)F)C(F)(F)F)N1CCC2(CCCN2C(=O)c2cc3cccc(F)c3s2)CC1 [Example 96, 1,1,1,3,3,3-Hexafluoropropan-2-yl 1-(7-fluorobenzo[b]thiophene-2-carbonyl)-1,8-diazaspiro[4.5] decane-8-carboxylate]
IC50 (MAGL [1]; [3]): < 100 nM | IC50 (MAGL [1]; [6]): < 100 nM | inhibition at 1 µM (MAGL [2]): > 75% | IC50 (MAGL [2]): < 100 nM

[2H]C1(N2CCn3cc(C(=O)N(C)C4(C)CCN(C(=O)OC(C(F)(F)F)C(F)(F)F)CC4)nc3C2)CC1 [Example 25, 1,1,1,3,3,3-hexafluoropropan-2-yl 4-(7-(cyclopropyl-1-d)-N-methyl-5,6,7,8-tetrahydroimidazo[1,2-a]pyrazine-2-carboxamido)-4-methylpiperidine-1-carboxylate]
inhibition at 1 µM (MAGL [1]; [4]): > 75% | IC50 (MAGL [1]; [3]): < 100 nM | inhibition at 1 µM (MAGL [2]): > 75%

CC(C)N1CCn2c(nnc2C(=O)NC2(C)CCN(C(=O)OC(C(F)(F)F)C(F)(F)F)CC2)C1 [Example 36, 1,1,1,3,3,3-Hexafluoropropan-2-yl 4-(7-isopropyl-5,6,7,8-tetrahydro-[1,2,4]triazolo[4,3-a]pyrazine-3-carboxamido)-4-methylpiperidine-1-carboxylate]
inhibition at 1 µM (MAGL [1]; [4]): > 75% | inhibition at 1 µM (MAGL [1]; [5]): > 75% | IC50 (MAGL [1]; [3]): < 100 nM | inhibition at 1 µM (MAGL [2]): > 75%

O=C(OC(C(F)(F)F)C(F)(F)F)N1CCC2(CCCN2C(=O)c2cnn(Cc3ccccc3)c2)CC1 [Example 88, 1,1,1,3,3,3-Hexafluoropropan-2-yl 1-(1-benzyl-1H-pyrazole-4-carbonyl)-1,8-diazaspiro[4.5] decane-8-carboxylate]
IC50 (MAGL [1]; [3]): < 100 nM | inhibition at 1 µM (MAGL [2]): > 75% | IC50 (MAGL [2]): < 100 nM
